The values that follow come from BindingDB's records for doi:10.1021/jm061242y (Elan Pharmaceuticals, 2007).

The target of the assay is Beta-secretase 1 (Homo sapiens, UniProt P56817). Kind of assay: BACE Enzyme Inhibition Assay. Particulars: pH 4.8; 37 °C. How it is done:
Beta-cleavage ELISA assays were carried out in reaction buffer containing enzyme, substrate MBP-C125, and test compounds. Generated beta-cleaved product was detected using biotinylated Sw192 or biotinyated Wt192 as specific reporter antibodies and quantitated against the appropriate MBP-C125 standard.

Sequence of Beta-secretase 1 (P56817 whole entry): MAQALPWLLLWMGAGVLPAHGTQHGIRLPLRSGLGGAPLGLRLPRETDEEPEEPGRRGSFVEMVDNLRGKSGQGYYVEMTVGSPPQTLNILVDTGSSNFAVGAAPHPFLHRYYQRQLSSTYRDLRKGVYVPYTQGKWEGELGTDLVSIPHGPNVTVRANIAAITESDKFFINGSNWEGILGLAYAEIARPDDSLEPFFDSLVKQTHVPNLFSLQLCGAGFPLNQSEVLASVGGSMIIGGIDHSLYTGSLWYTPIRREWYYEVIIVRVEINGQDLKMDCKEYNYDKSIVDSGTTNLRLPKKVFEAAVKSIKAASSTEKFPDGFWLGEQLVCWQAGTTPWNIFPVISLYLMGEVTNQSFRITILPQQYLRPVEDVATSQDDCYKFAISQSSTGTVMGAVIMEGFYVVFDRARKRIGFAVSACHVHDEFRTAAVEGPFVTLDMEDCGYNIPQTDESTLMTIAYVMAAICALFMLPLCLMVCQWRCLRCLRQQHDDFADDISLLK

Consider `CCCN(CCC)C(=O)c1cccc(C(=O)N[C@@H](Cc2cc(F)cc(F)c2)[C@@H](O)C[C@@H](C)C(=O)NCC(C)C)c1`, for which it took 0.03 µM to reach half-maximal inhibition (IC50).
For the compound `CCCN(CCC)C(=O)c1cccc(C(=O)N[C@@H](Cc2cc(F)cc(F)c2)[C@@H](O)CN[C@@H](C)C(=O)NCC(C)C)c1` [N-[(1S,2S)-1-(3,5-difluorobenzyl)-2-hydroxy-3-({(1S)-1-methyl-2-[(2-methylpropyl)amino]-2-oxoethyl}amino)propyl]-N,N-dipropylbenzene-1,3-dicarboxamide], it took 68 µM to reach half-maximal inhibition (IC50).

What is called IC50 is the concentration that gives 50% inhibition. Read a high IC50 as weaker potency in that assay.
